Measured values reported in patent US8486459B2 (Cremer Oleo GmbH & Co. KG, priority 2011, dated 2013).

How the values were obtained:
[1] = test system: commensal microflora in the oral cavity; conditions: in vivo; cited from earlier work
certain microorganisms = assay: Comparative antimicrobial experiments, hydrogen peroxide alone vs enriched extract; format: cell-based; conditions: 0.05 wt % expressed as H2O2
[2] = test system: L5178Y leukemia lymphoma mouse cells; conditions: cited from earlier work
[3] = test system: chloroquine-resistant strain K1 of Plasmodium falciparum; conditions: in vitro; cited from earlier work
Staphylococcus aureus = conditions: in vitro; cited from earlier work
Bacillus subtilis = conditions: in vitro; cited from earlier work
Pseudomonas aeruginosa = conditions: in vitro; cited from earlier work
Candida albicans = conditions: in vitro; cited from earlier work
Escherichia coli = conditions: in vitro; cited from earlier work
Micrococcus luteus = conditions: in vitro; cited from earlier work

For `OO` [hydrogen peroxide], the “effect on the commensal microflora in the oral cavity” value [1] is listed as “extremely harmful effect” and the antimicrobial effect (certain microorganisms) is listed as “did not yield the antimicrobial properties”.

In the case of `[H]/N=C(\N/C(=N/[H])NCCCCCCNC(=N)NC(=N)Nc1ccc(Cl)cc1)Nc1ccc(Cl)cc1` [chlorhexidine], the “effect on the commensal microflora in the oral cavity” value [1] is given as “extremely harmful effect”.

In the case of `COc1cc(O)c(-c2c(C)cc(O)c3c2C(=O)c2ccc([C@H]4c5cccc(O)c5C(=O)c5c(O)cc(C)c(-c6c(O)cc(OC)c(C(C)=O)c6O)c54)c(O)c2C3=O)c(O)c1C(C)=O` [joziknipholone A], the “effect against L5178Y cells” value [2] is given as “moderate effect” and the “effect against Plasmodium falciparum K1” value [3] is given as “exhibited an effect”.

In the case of `COc1cc(O)c(-c2c(C)cc(O)c3c2C(=O)c2cccc(O)c2C3=O)c(O)c1C(C)=O` [knipholone], the antimicrobial effect (Staphylococcus aureus) is given as “ineffective”, the antimicrobial effect (Bacillus subtilis) is given as “ineffective” and the antimicrobial effect (Pseudomonas aeruginosa) is given as “ineffective”. The antimicrobial effect (Candida albicans) was “ineffective”, the antimicrobial effect (Escherichia coli) was “ineffective” and the antimicrobial effect (Micrococcus luteus) was “ineffective”.
